# In patent publication US12398154B2, “Azaquinazoline pan-KRas inhibitors” (Mirati Therapeutics, Inc., priority 2020, dated 2025):
# Assays:
# Assay in all cases: biochemical
# KRas G12D = KRas G12D (Homo sapiens, UniProt P01116, G12D);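 further: TR-FRET displacement binding assay on KRas, read after a one-hour incubation at room temperature, IC50 fitted from percent-of-control values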
# Procedure: (§1) The ability of a compound to bind to KRas was measured using a TR-FRET displacement assay. […] After a 60-minute incubation at room temperature, the reaction was measured using a BMG LABTECH CLARIO star Plus via TR-FRET. […] The POC values were fit to a 4-parameter IC50 equation and the IC50 value reported.
# KRas G12V = KRas G12V (Homo sapiens, UniProt P01116, G12V);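 further: KRas binding measured by TR-FRET displacement at room temperature, IC50 fitted from percent of control values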
# Chain of KRas G12V (P01116 1-169 isoform P01116-2 G12V): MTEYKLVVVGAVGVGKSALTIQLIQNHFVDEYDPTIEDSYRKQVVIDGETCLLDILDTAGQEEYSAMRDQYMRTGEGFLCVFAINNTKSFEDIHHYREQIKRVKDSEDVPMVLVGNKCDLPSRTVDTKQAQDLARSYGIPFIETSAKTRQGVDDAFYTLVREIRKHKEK
# Procedure: as §1
# KRas G12R = KRas G12R (Homo sapiens, UniProt P01116, G12R);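 further: TR-FRET displacement assay of compound binding to KRas, read after one hour at room temperature, potency from a four-parameter fit of percent-of-control values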
# Chain of KRas G12R (P01116 1-169 isoform P01116-2 G12R): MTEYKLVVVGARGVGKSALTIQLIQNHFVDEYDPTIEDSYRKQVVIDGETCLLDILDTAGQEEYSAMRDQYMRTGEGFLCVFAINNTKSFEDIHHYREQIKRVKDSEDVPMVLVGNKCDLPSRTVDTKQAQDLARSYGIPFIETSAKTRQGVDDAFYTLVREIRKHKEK
# Procedure: as §1
# Chain of KRas G12D (P01116 1-169 isoform P01116-2 G12D): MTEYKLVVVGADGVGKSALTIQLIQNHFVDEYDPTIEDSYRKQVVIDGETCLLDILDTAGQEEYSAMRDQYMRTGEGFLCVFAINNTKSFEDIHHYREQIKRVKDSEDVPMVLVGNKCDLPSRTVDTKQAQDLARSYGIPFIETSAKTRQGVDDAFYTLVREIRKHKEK
Compound,IC50 (KRas G12D) [µM],IC50 (KRas G12V) [µM],IC50 (KRas G12R) [µM]
"CC1(O)CCCN(c2nc(OCC34CCCN3CCC4)nc3c(F)c(-c4cccc5cccc(Cl)c45)ncc23)C1 (centres unmarked) [Example 1, 1-(7-(8-chloronaphthalen-1-yl)-8-fluoro-2-((hexahydro-1H-pyrrolizin-7a-yl)methoxy)pyrido[4,3-d]pyrimidin-4-yl)-3-methylpiperidin-3-ol]",0.33,0.565,0.866
"O=C1CC2(CCCN(c3nc(OCC45CCCN4CCC5)nc4c(F)c(-c5cccc6cccc(Cl)c56)ncc34)C2)CN1 (centres unmarked) [Example 2, 7-(7-(8-chloronaphthalen-1-yl)-8-fluoro-2-((tetrahydro-1H-pyrrolizin-7a(5H)-yl)methoxy)pyrido[4,3-d]pyrimidin-4-yl)-2,7-diazaspiro[4.5]decan-3-one]",0.632,1.01,2.18
"O=C1CCN(c2nc(OCC34CCCN3CCC4)nc3c(F)c(-c4cccc5cccc(F)c45)ncc23)CCCN1 [Example 3, 5-(8-fluoro-7-(8-fluoronaphthalen-1-yl)-2-((hexahydro-1H-pyrrolizin-7a-yl)methoxy)pyrido[4,3-d]pyrimidin-4-yl)-1,5-diazocan-2-one]",8.18,11.7,20.4
"OC1CCCN(c2nc(OCC34CCCN3CCC4)nc3c(F)c(-c4cccc5cccc(F)c45)ncc23)CC1 (centres unmarked) [Example 8, 1-(8-fluoro-7-(8-fluoronaphthalen-1-yl)-2-((hexahydro-1H-pyrrolizin-7a-yl)methoxy)pyrido[4,3-d]pyrimidin-4-yl)azepan-4-ol]",2.24,2.63,5.41
"CCc1c(F)ccc2cc(O)cc(-c3ncc4c(N5CCC[C@](C)(O)C5)nc(OC[C@@H]5C[C@@H](OC(=O)NC)CN5C)nc4c3F)c12 [Example 9, [(3R,5S)-5-[[7-(8-ethyl-7-fluoro-3-hydroxy-1-naphthyl)-8-fluoro-4-[(3S)-3-hydroxy-3-methyl-1-piperidyl]pyrido[4,3-d]pyrimidin-2-yl]oxymethyl]-1-methyl-pyrrolidin-3-yl] N-methylcarbamate]",0.456,0.333,0.354
"OC1CCN(c2nc(OCC34CCCN3CCC4)nc3c(F)c(-c4cccc5cccc(F)c45)ncc23)CC1 [Example 11, 1-(8-fluoro-7-(8-fluoronaphthalen-1-yl)-2-((hexahydro-1H-pyrrolizin-7a-yl)methoxy)pyrido[4,3-d]pyrimidin-4-yl)piperidin-4-ol]",15.5,20.8,40.1
"CC1(CNc2nc(OCC34CCCN3CCC4)nc3c(F)c(-c4cccc5cccc(F)c45)ncc23)CCC1 [Example 19, 8-fluoro-7-(8-fluoronaphthalen-1-yl)-2-((hexahydro-1H-pyrrolizin-7a-yl)methoxy)-N-((1-methylcyclobutyl)methyl)pyrido[4,3-d]pyrimidin-4-amine]",≥ 100,64.5,84.3
"Fc1c(-c2cccc3cccc(F)c23)ncc2c(N3CCCC4CC43)nc(OCC34CCCN3CCC4)nc12 (centres unmarked) [Example 31, 4-(2-azabicyclo[4.1.0]heptan-2-yl)-8-fluoro-7-(8-fluoronaphthalen-1-yl)-2-((hexahydro-1H-pyrrolizin-7a-yl)methoxy)pyrido[4,3-d]pyrimidine]",–,13.2,12.8
"Fc1c(-c2cccc3cccc(F)c23)ncc2c(N3CCCC4CCCC43)nc(OCC34CCCN3CCC4)nc12 (centres unmarked) [Example 32, 8-fluoro-7-(8-fluoronaphthalen-1-yl)-2-((hexahydro-1H-pyrrolizin-7a-yl)methoxy)-4-(octahydro-1H-cyclopenta[b]pyridin-1-yl)pyrido[4,3-d]pyrimidine]",98.6,≥ 100,86.3
"C[C@H]1C[C@@H](O)CN(c2nc(OCC34CCCN3CCC4)nc3c(F)c(-c4cccc5cccc(F)c45)ncc23)C1 [Example 33, (3R,5S)-1-(8-fluoro-7-(8-fluoronaphthalen-1-yl)-2-((hexahydro-1H-pyrrolizin-7a-yl)methoxy)pyrido[4,3-d]pyrimidin-4-yl)-5-methylpiperidin-3-ol]",6.37,6.61,10
"Cc1cc2sc(N)nc2c(-c2ncc3c(N4CCCC(C)(O)C4)nc(OC[C@@]45CCCN4C[C@H](F)C5)nc3c2F)c1C (stereo partly drawn) [Example 39, 1-(7-(2-amino-5,6-dimethylbenzo[d]thiazol-4-yl)-8-fluoro-2-(((2R,7aS)-2-fluorotetrahydro-1H-pyrrolizin-7a(5H)-yl)methoxy)pyrido[4,3-d]pyrimidin-4-yl)-3-methylpiperidin-3-ol]",12.5,25.5,19.8
"Cc1cc2sc(N)nc2c(-c2ncc3c(N4CCCC(C)(O)C4)nc(OCC45CCCN4CCC5)nc3c2F)c1C (centres unmarked) [Example 40, 1-(7-(2-amino-5,6-dimethylbenzo[d]thiazol-4-yl)-8-fluoro-2-((hexahydro-1H-pyrrolizin-7a-yl)methoxy)pyrido[4,3-d]pyrimidin-4-yl)-3-methylpiperidin-3-ol]",55,66.3,76.9
"Fc1c(-c2cccc3cccc(F)c23)ncc2c(N3CCCCCCC3)nc(OCC34CCCN3CCC4)nc12 [Example 41, 4-(azocan-1-yl)-8-fluoro-7-(8-fluoronaphthalen-1-yl)-2-((hexahydro-1H-pyrrolizin-7a-yl)methoxy)pyrido[4,3-d]pyrimidine]",6.48,3.41,6.39
"Fc1c(-c2cccc3cccc(F)c23)ncc2c(N3CCCOCC3)nc(OCC34CCCN3CCC4)nc12 [Example 42, 4-(8-fluoro-7-(8-fluoronaphthalen-1-yl)-2-((hexahydro-1H-pyrrolizin-7a-yl)methoxy)pyrido[4,3-d]pyrimidin-4-yl)-1,4-oxazepane]",1.86,1.61,3.09
"Fc1c(-c2cccc3cccc(F)c23)ncc2c(N3CCCSCC3)nc(OCC34CCCN3CCC4)nc12 [Example 43, 4-(8-fluoro-7-(8-fluoronaphthalen-1-yl)-2-((hexahydro-1H-pyrrolizin-7a-yl)methoxy)pyrido[4,3-d]pyrimidin-4-yl)-1,4-thiazepane]",3.78,1.3,2.27
"OC1CCCCN(c2nc(OCC34CCCN3CCC4)nc3c(F)c(-c4cccc5cccc(F)c45)ncc23)C1 (centres unmarked) [Example 44, 1-(8-fluoro-7-(8-fluoronaphthalen-1-yl)-2-((hexahydro-1H-pyrrolizin-7a-yl)methoxy)pyrido[4,3-d]pyrimidin-4-yl)azepan-3-ol]",3.23,2.99,6.24
"O=C1NCC2(CCCN(c3nc(OCC45CCCN4CCC5)nc4c(F)c(-c5cccc6cccc(F)c56)ncc34)C2)N1 (centres unmarked) [Example 45, 7-(8-fluoro-7-(8-fluoronaphthalen-1-yl)-2-((hexahydro-1H-pyrrolizin-7a-yl)methoxy)pyrido[4,3-d]pyrimidin-4-yl)-1,3,7-triazaspiro[4.5]decan-2-one]",0.089,0.189,0.362
"OC1CCC2(CCCN(c3nc(OCC45CCCN4CCC5)nc4c(F)c(-c5cccc6cccc(F)c56)ncc34)C2)C1 (centres unmarked) [Example 47, 7-(8-fluoro-7-(8-fluoronaphthalen-1-yl)-2-((hexahydro-1H-pyrrolizin-7a-yl)methoxy)pyrido[4,3-d]pyrimidin-4-yl)-7-azaspiro[4.5]decan-2-ol]",63.4,70.1,≥ 100
"Fc1c(-c2cccc3cccc(F)c23)ncc2c(N3CCOCC3)nc(OCC34CCCN3CCC4)nc12 [Example 49, 4-(8-fluoro-7-(8-fluoronaphthalen-1-yl)-2-((tetrahydro-1H-pyrrolizin-7a(5H)-yl)methoxy)pyrido[4,3-d]pyrimidin-4-yl)morpholine]",70,27.9,18.9
"Fc1c(-c2cccc3cccc(F)c23)ncc2c(N3CCSCC3)nc(OCC34CCCN3CCC4)nc12 [Example 50, 4-(8-fluoro-7-(8-fluoronaphthalen-1-yl)-2-((hexahydro-1H-pyrrolizin-7a-yl)methoxy)pyrido[4,3-d]pyrimidin-4-yl)thiomorpholine]",39,22.6,22.7
"CCc1c(F)ccc2cc(O)cc(-c3ncc4c(NCC5(O)CCCCC5)nc(OC[C@@]56CCCN5C[C@H](F)C6)nc4c3F)c12 [Example 52, 5-ethyl-6-fluoro-4-(8-fluoro-2-(((2R,7aS)-2-fluorohexahydro-1H-pyrrolizin-7a-yl)methoxy)-4-(((1-hydroxycyclohexyl)methyl)amino)pyrido[4,3-d]pyrimidin-7-yl)naphthalen-2-ol]",0.235,0.025,0.039
"CC1(C)CCCN(c2nc(OCC34CCCN3CCC4)nc3c(F)c(-c4cccc5cccc(F)c45)ncc23)C1 [Example 53, 4-(3,3-dimethylpiperidin-1-yl)-8-fluoro-7-(8-fluoronaphthalen-1-yl)-2-((hexahydro-1H-pyrrolizin-7a-yl)methoxy)pyrido[4,3-d]pyrimidine]",66.4,49.4,90.2
"CCc1cccc2cccc(-c3ncc4c(N5CCCC(C)(O)C5)nc(OCC56CCCN5CCC6)nc4c3F)c12 (centres unmarked) [Example 54, 1-(7-(8-ethylnaphthalen-1-yl)-8-fluoro-2-((hexahydro-1H-pyrrolizin-7a-yl)methoxy)pyrido[4,3-d]pyrimidin-4-yl)-3-methylpiperidin-3-ol]",0.162,0.321,0.528
"CC1(O)CCCN(c2nc(OCC34CCCN3CCC4)nc3c(F)c(-c4cccc5cccc(C#N)c45)ncc23)C1 (centres unmarked) [Example 56, 8-(8-fluoro-2-((hexahydro-1H-pyrrolizin-7a-yl)methoxy)-4-(3-hydroxy-3-methylpiperidin-1-yl)pyrido[4,3-d]pyrimidin-7-yl)-1-naphthonitrile]",2.61,3.76,8.34
CC1(O)CCCN(c2nc(OCC34CCCN3CCC4)nc3c(F)c(-c4cccc5cccnc45)ncc23)C1 (centres unmarked) [Example 66],26.9,44.5,67.8
